The text below walks through data of patent US11795171B2, “Pyrrolotriazinones and imidazotriazinones as ubiquitin-specific protease 7 inhibitors” (Valo Health, Inc., priority 2014, dated 2023).

The structures appear in SMILES notation. Some results are limits rather than exact numbers.

For one assay, the target named is T1, USP7 (Homo sapiens (Human), UniProt Q93009). The assay can be described thus: USP7 Assay B (Ubitquin-Rhodamine110 Assay). It is filed as biochemical. To be noted: Ub-Rh110 substrate 25 nM.
T1 sequence (Q93009 208-1102): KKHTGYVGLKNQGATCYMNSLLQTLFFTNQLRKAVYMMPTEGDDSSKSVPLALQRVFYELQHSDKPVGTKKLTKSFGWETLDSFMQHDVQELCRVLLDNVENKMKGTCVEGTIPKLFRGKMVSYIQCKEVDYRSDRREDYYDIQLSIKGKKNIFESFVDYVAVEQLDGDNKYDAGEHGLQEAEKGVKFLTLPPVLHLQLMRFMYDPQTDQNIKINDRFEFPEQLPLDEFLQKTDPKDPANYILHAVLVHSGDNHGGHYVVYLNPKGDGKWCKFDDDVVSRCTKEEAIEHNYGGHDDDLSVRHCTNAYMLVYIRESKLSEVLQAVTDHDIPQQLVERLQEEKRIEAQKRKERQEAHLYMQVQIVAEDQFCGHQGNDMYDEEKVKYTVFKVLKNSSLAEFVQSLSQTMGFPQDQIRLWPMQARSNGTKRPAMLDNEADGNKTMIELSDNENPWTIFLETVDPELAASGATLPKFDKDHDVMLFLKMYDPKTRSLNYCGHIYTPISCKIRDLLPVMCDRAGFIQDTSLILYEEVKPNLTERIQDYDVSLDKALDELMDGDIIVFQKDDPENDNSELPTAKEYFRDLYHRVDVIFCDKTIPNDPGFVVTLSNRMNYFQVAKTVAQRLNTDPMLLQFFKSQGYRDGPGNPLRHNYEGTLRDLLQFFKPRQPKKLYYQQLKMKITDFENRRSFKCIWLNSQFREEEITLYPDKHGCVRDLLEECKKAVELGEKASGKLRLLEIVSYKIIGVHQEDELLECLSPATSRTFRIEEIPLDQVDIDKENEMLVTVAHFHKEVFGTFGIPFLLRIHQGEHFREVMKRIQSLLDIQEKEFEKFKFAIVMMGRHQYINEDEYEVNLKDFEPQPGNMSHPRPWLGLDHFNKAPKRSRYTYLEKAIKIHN
In the case of `C=C(C)C(=O)Nc1ccccc1-c1ccc(C(=O)N2CCC(O)(Cn3cnn4cccc4c3=O)CC2)cc1` [Compound I-114, N-(4′-(4-hydroxy-4-((4-oxopyrrolo[2,1-f][1,2,4]triazin-3(4H)-yl)methyl)piperidine-1-carbonyl)-[1,1′-biphenyl]-2-yl)methacrylamide], the half-maximal inhibitory concentration (IC50) (as a rule, the midpoint of a concentration-inhibition curve) lay in the range of 1 to 10 µM.

`Cc1cc(-c2cccc(C(=O)N3CCC(O)(Cn4cnn5cccc5c4=O)CC3)c2)ccc1F` [Compound I-9, 3-((1-(4′-fluoro-3′-methyl-[1,1′-biphenyl]-3-carbonyl)-4-hydroxypiperidin-4-yl)methyl)pyrrolo[2,1-f][1,2,4]triazin-4(3H)-one]: the 50% inhibitory concentration (IC50) was > 10 µM.

`O=C(c1cccc(-c2cccs2)c1)N1CCC(O)(Cn2cnn3cccc3c2=O)CC1` [Compound I-27, 3-((4-hydroxy-1-(3-(thiophen-2-yl)benzoyl)piperidin-4-yl)methyl)pyrrolo[2,1-f][1,2,4]triazin-4(3H)-one]: the IC50 is > 10 µM.

As to `O=C(c1cccc(-c2ccccc2F)c1)N1CCC(O)(Cn2cnn3cccc3c2=O)CC1` [Compound I-29, 3-((1-(2′-fluoro-[1,1′-biphenyl]-3-carbonyl)-4-hydroxypiperidin-4-yl)methyl)pyrrolo[2,1-f][1,2,4]triazin-4(3H)-one], the IC50 is 1 to 10 µM.

On to `Cc1ccc(C(=O)Nc2cc3c(=O)n(CC4(O)CCN(C(=O)C5CC5)CC4)cnn3c2)cc1Cl` [Compound I-108, 3-chloro-N-(3-((1-(cyclopropanecarbonyl)-4-hydroxypiperidin-4-yl)methyl)-4-oxo-3,4-dihydropyrrolo[2,1-f][1,2,4]triazin-6-yl)-4-methylbenzamide], for which the IC50 is > 10 µM.

As for `O=C(c1ccc(Sc2ccccc2)cc1)N1CCC(O)(Cn2cnn3cccc3c2=O)CC1` [Compound I-62, 3-((4-hydroxy-1-(4-(phenylthio)benzoyl)piperidin-4-yl)methyl)pyrrolo[2,1-f][1,2,4]triazin-4(3H)-one], the 50% inhibitory concentration (IC50) was in the range of 1 to 10 µM.

Take `O=C(NCc1ccc(Cl)cc1)Nc1cc2c(=O)n(CC3(O)CCN(C(=O)C4CC4)CC3)cnn2c1` [Compound I-91, 1-(4-chlorobenzyl)-3-(3-((1-(cyclopropanecarbonyl)-4-hydroxypiperidin-4-yl)methyl)-4-oxo-3,4-dihydropyrrolo[2,1-f][1,2,4]triazin-6-yl)urea]: the 50% inhibitory concentration (IC50) was > 10 µM.

In turn, `O=C(c1cccc(-c2ccc3ncccc3c2)c1)N1CCC(O)(Cn2cnn3cccc3c2=O)CC1` [Compound I-21, 3-((4-hydroxy-1-(3-(quinolin-6-yl)benzoyl)piperidin-4-yl)methyl)pyrrolo[2,1-f][1,2,4]triazin-4(3H)-one] came in with an IC50 of 1 to 10 µM.

For the molecule `O=C(Nc1cccc(Cl)c1)Nc1cc2c(=O)n(CC3(O)CCN(C(=O)C4CC4)CC3)cnn2c1` [Compound I-85, 1-(3-chlorophenyl)-3-(3-((1-(cyclopropanecarbonyl)-4-hydroxypiperidin-4-yl)methyl)-4-oxo-3,4-dihydropyrrolo[2,1-f][1,2,4]triazin-6-yl)urea], the IC50 is > 10 µM.

Turning to `Cc1cc(C)n(Cc2ccc(C(=O)N3CCC(O)(Cn4cnn5cccc5c4=O)CC3)cc2)n1` [Compound I-69, 3-((1-(4-((3,5-dimethyl-1H-pyrazol-1-yl)methyl)benzoyl)-4-hydroxypiperidin-4-yl)methyl)pyrrolo[2,1-f][1,2,4]triazin-4(3H)-one], the IC50 lay in the range of 1 to 10 µM.

`Cc1ccc2c(=O)n(CC3(O)CCN(C(=O)CC(C)c4ccccc4)CC3)cnn12` (centres unmarked) [Compound I-76, 3-((4-hydroxy-1-(3-phenylbutanoyl)piperidin-4-yl)methyl)-7-methylpyrrolo[2,1-f][1,2,4]triazin-4(3H)-one] registered an IC50 of 0.2 to 1 µM.

For `COc1cccc(-c2ccc(C(=O)N3CCC(O)(Cn4cnn5cccc5c4=O)CC3)cc2)c1` [Compound I-35, 3-((4-hydroxy-1-(3′-methoxy-[1,1′-biphenyl]-4-carbonyl)piperidin-4-yl)methyl)pyrrolo[2,1-f][1,2,4]triazin-4(3H)-one], the IC50 was > 10 µM.

`O=C(c1ccc(Cn2cccn2)cc1)N1CCC(O)(Cn2cnn3cccc3c2=O)CC1` [Compound I-65, 3-((1-(4-((1H-pyrazol-1-yl)methyl)benzoyl)-4-hydroxypiperidin-4-yl)methyl)pyrrolo[2,1-f][1,2,4]triazin-4(3H)-one] yielded an IC50 of 1 to 10 µM.

As to `N#CC(Cc1ccccc1)C(=O)N1CCC(O)(Cn2cnn3cccc3c2=O)CC1` (centres unmarked) [Compound I-54, 2-benzyl-3-(4-hydroxy-4-((4-oxopyrrolo[2,1-f][1,2,4]triazin-3(4H)-yl)methyl)piperidin-1-yl)-3-oxopropanenitrile], the IC50 was > 10 µM.

With `O=C(COc1cccc(Cl)c1Cl)Nc1cc2c(=O)n(CC3(O)CCN(C(=O)C4CC4)CC3)cnn2c1` [Compound I-106, N-(3-((1-(cyclopropanecarbonyl)-4-hydroxypiperidin-4-yl)methyl)-4-oxo-3,4-dihydropyrrolo[2,1-f][1,2,4]triazin-6-yl)-2-(2,3-dichlorophenoxy)acetamide], the IC50 lay in the range of 1 to 10 µM.

Take `O=C(c1ccc(Cn2cnc3ccccc32)cc1)N1CCC(O)(Cn2cnn3cccc3c2=O)CC1` [Compound I-64, 3-((1-(4-((1H-benzo[d]imidazol-1-yl)methyl)benzoyl)-4-hydroxypiperidin-4-yl)methyl)pyrrolo[2,1-f][1,2,4]triazin-4(3H)-one]: the IC50 lay within 1 to 10 µM.

Regarding `CC(C)c1ccc(-c2cccc(C(=O)N3CCC(O)(Cn4cnn5cccc5c4=O)CC3)c2)cc1` [Compound I-14, 3-((4-hydroxy-1-(4′-isopropyl-[1,1′-biphenyl]-3-carbonyl)piperidin-4-yl)methyl)pyrrolo[2,1-f][1,2,4]triazin-4(3H)-one], the IC50 was > 10 µM.

As for `O=C(Nc1cccc(F)c1)Nc1cc2c(=O)n(CC3(O)CCN(C(=O)C4CC4)CC3)cnn2c1` [Compound I-96, 1-(3-((1-(cyclopropanecarbonyl)-4-hydroxypiperidin-4-yl)methyl)-4-oxo-3,4-dihydropyrrolo[2,1-f][1,2,4]triazin-6-yl)-3-(3-fluorophenyl)urea], the IC50 is > 10 µM.

`O=C(c1cccc(-c2ccccc2)c1)N1CCC(O)(Cn2cnn3cccc3c2=O)CC1` [Compound I-11, 3-((1-([1,1′-biphenyl]-3-carbonyl)-4-hydroxypiperidin-4-yl)methyl)pyrrolo[2,1-f][1,2,4]triazin-4(3H)-one]: the half-maximal inhibitory concentration (IC50) was in the range of 1 to 10 µM.

For `Cc1cccc(NC(=O)Nc2cc3c(=O)n(CC4(O)CCN(C(=O)C5CC5)CC4)cnn3c2)c1` [Compound I-86, 1-(3-((1-(cyclopropanecarbonyl)-4-hydroxypiperidin-4-yl)methyl)-4-oxo-3,4-dihydropyrrolo[2,1-f][1,2,4]triazin-6-yl)-3-(m-tolyl)urea], the IC50 was > 10 µM.

As to `CS(=O)(=O)c1ccc(N2CCN(C(=O)N3CCC(O)(Cn4cnn5cccc5c4=O)CC3)CC2)cc1` [Compound I-74, 3-((4-hydroxy-1-(4-(4-(methylsulfonyl)phenyl)piperazine-1-carbonyl)piperidin-4-yl)methyl)pyrrolo[2,1-f][1,2,4]triazin-4(3H)-one], the IC50 is > 10 µM.

As for `CC(C)(c1ccccc1)c1ccc(C(=O)N2CCC(O)(Cn3cnn4cccc4c3=O)CC2)cc1` [Compound I-55, 3-((4-hydroxy-1-(4-(2-phenylpropan-2-yl)benzoyl)piperidin-4-yl)methyl)pyrrolo[2,1-f][1,2,4]triazin-4(3H)-one], the IC50 was 1 to 10 µM.

On to `O=C(Nc1cc2c(=O)n(CC3(O)CCN(C(=O)C4CC4)CC3)cnn2c1)c1ccc(C(F)(F)F)cc1` [Compound I-102, N-(3-((1-(cyclopropanecarbonyl)-4-hydroxypiperidin-4-yl)methyl)-4-oxo-3,4-dihydropyrrolo[2,1-f][1,2,4]triazin-6-yl)-4-(trifluoromethyl)benzamide], for which the IC50 was > 10 µM.

The target of the next assay is T1, USP7. Description: USP7 Assay A (Ubitquin-Rhodamine110 Assay). The class given is biochemical. To be noted: Ub-Rh110 substrate 25 nM. The protocol:
Each assay was performed in a final volume of 15 μL in assay buffer containing 20 mM Tris-HCl (pH 8.0, (1M Tris-HCl, pH 8.0 solution; Corning 46-031-CM)), 1 mM GSH (L-Glutathione reduced: Sigma #G4251), 0.03% BGG ([…], Sigma, #G7516-25G), and 0.01% Triton X-100 (Sigma, #T9284-10L). Nanoliter quantities of either an 8-point or 10-point, 3-fold serial dilution in DMSO was pre-dispensed into assay plates (Perkin Elmer, ProxiPlate-384 F Plus, #6008269) for a final test concentration range of either 25 μM to 11 nM or 25 μM to 1.3 nM, respectively. The final concentration of the enzyme (USP7, construct USP7 (208-1102) 6*His, Viva Biotech) in the assay was […]. […] 5 μL of 2× enzyme was added to assay plates (pre-stamped with compound) preincubated with USP7 for 30 minutes and then 5 μL of 2×Ub-Rh110 was added to assay plates. Plates were incubated stacked for 20 minutes at room temperature before 5 μL of stop solution (final concentration of 10 mM citric acid in assay buffer (Sigma, #251275-500G)). Fluorescence was read on the Envision (Excitation at 485 nm and Emission at 535 nm; Perkin Elmer) or on the PheraSTAR (Excitation at 485 nm and Emission at 535 nm; BMG Labtech).
Data from USP7 Assays A and B were reported as percent inhibition (inh) compared with control wells based on the following equation: % inh=1−((FLU−AveLow)/(AveHigh−AveLow)) where FLU=measured Fluorescence (See Tables 2 and 3). AveLow=average Fluorescence of no enzyme control (n=16). AveHigh=average Fluorescence of DMSO control (n=16). IC50 values were determined by curve fitting of the standard 4 parameter logistic fitting algorithm included in the Activity Base software package: IDBS XE Designer Model205. Data is fitted using the Levenburg Marquardt algorithm. IC50 data from USP7 Assays A and B for the compounds of the invention can be found in Tables 2 and 3.
`Cc1ccc(-c2ncc3c(=O)n(CC4(O)CCN(C(=O)c5ccc(F)cc5)CC4)cnn23)cc1` [Compound I-117, 3-((1-(4-fluorobenzoyl)-4-hydroxypiperidin-4-yl)methyl)-7-p-tolylimidazo[1,5-f][1,2,4]triazin-4(3H)-one] came in with an IC50 of 1 to 10 µM.

Take `Cc1ccc(-c2ncc3c(=O)n(CC4(O)CCN(C(=O)C[C@H](C)n5cccn5)CC4)cnn23)cc1` [Compound I-120, (S)-3-((1-(3-(1H-pyrazol-1-yl)butanoyl)-4-hydroxypiperidin-4-yl)methyl)-7-(p-tolyl)imidazo[5,1-f][1,2,4]triazin-4(3H)-one]: the IC50 lay in the range of 1 to 10 µM.

Regarding `Cc1ccc(C(=O)N2CCC(O)(Cn3cnn4c(-c5ccc(F)cc5)ncc4c3=O)CC2)cc1F` [Compound I-125, 3-((1-(3-fluoro-4-methylbenzoyl)-4-hydroxypiperidin-4-yl)methyl)-7-(4-fluorophenyl)imidazo[5,1-f][1,2,4]triazin-4(3H)-one], the IC50 is > 10 µM.
